Assay results taken from ChEMBL document CHEMBL1201862, “PubChem BioAssay data set” (2004).
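Cultured in 96-well plates, cells were exposed to test compound for 48 hours across five concentrations. GI50 = concentration required for 50% inhibition of growth.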 Activity calls are given as the source filed them. No stated cut-off is given here; in the data, active = GI50 up to about 1.1 µM and inactive = higher.

What was measured:
Experiment in all cases: NCI tumour cell line growth inhibition, 48 h
SF-295 = tested on: SF-295
COLO 205 = tested on: COLO 205
UO-31 = tested on: UO-31
MOLT-4 = tested on: MOLT-4
OVCAR-3 = tested on: OVCAR-3
SF-268 = tested on: SF-268
CCRF-CEM = tested on: CCRF-CEM
OVCAR-8 = tested on: OVCAR-8
NCI-H460 = tested on: NCI-H460
A549 = tested on: A549
SK-MEL-28 = tested on: SK-MEL-28
UACC-62 = tested on: UACC-62
SN12C = tested on: SN12C
RPMI-8226 = tested on: RPMI-8226
LOX IMVI = tested on: LOX IMVI
NCI/ADR-RES = tested on: NCI/ADR-RES
HL-60 = tested on: HL-60
MDA-MB-435 = tested on: MDA-MB-435
SK-MEL-2 = tested on: SK-MEL-2
MDA-N = tested on: MDA-N
HCC 2998 = tested on: HCC 2998
HCT-116 = tested on: HCT-116
OVCAR-5 = tested on: OVCAR-5
MDA-MB-231 = tested on: MDA-MB-231
CAKI-1 = tested on: CAKI-1
NCI-H23 = tested on: NCI-H23
SK-OV-3 = tested on: SK-OV-3
UACC-257 = tested on: UACC-257
BT-549 = tested on: BT-549
SK-MEL-5 = tested on: SK-MEL-5
DU-145 = tested on: DU-145
PC-3 = tested on: PC-3
HOP-92 = tested on: HOP-92
IGROV-1 = tested on: IGROV-1
KM12 = tested on: KM12
K562 = tested on: K562
RXF 393 = tested on: RXF 393
SW-620 = tested on: SW-620
EKVX = tested on: EKVX
A498 = tested on: A498
786-0 = tested on: 786-0
HT-29 = tested on: HT-29
SNB-19 = tested on: SNB-19
NCI-H522 = tested on: NCI-H522
OVCAR-4 = tested on: OVCAR-4
M14 = tested on: M14
Malme-3M = tested on: Malme-3M
SF-539 = tested on: SF-539
HCT-15 = tested on: HCT-15
NCI-H226 = tested on: NCI-H226
U-251 = tested on: U-251
ACHN = tested on: ACHN
Hs-578T = tested on: Hs-578T
MCF7 = tested on: MCF7
TK-10 = tested on: TK-10
SR = tested on: SR
T47D = tested on: T47D
HOP-62 = tested on: HOP-62

With `CSC1(SC)CCCCCCCCCCC1` the GI50 (SF-295) was 37.3 µM (inactive), the GI50 (COLO 205) was 19.2 µM (inactive) and the GI50 (UO-31) was 31.3 µM (inactive). The GI50 (MOLT-4) was 33.7 µM (inactive), the GI50 (OVCAR-3) was 27.8 µM (inactive) and the GI50 (SF-268) was 53.7 µM (inactive). For the same compound, the GI50 (CCRF-CEM) was 22.9 µM (inactive), the GI50 (OVCAR-8) was 45.5 µM (inactive) and the GI50 (NCI-H460) was 29.8 µM (inactive). The GI50 (A549) was 31.6 µM (inactive), the GI50 (SK-MEL-28) was 44.9 µM (inactive) and the GI50 (UACC-62) was 46 µM (inactive). The GI50 (SN12C) was 70 µM (inactive), the GI50 (RPMI-8226) was 78.5 µM (inactive) and the GI50 (LOX IMVI) was 18.7 µM (inactive). The GI50 (NCI/ADR-RES) was 41.2 µM (inactive), the GI50 (HL-60) was 46.3 µM (inactive) and the GI50 (MDA-MB-435) was 38.9 µM (inactive). The GI50 (SK-MEL-2) was 24 µM (inactive), the GI50 (MDA-N) was 42.8 µM (inactive) and the GI50 (HCC 2998) was 20.4 µM (inactive). The GI50 (HCT-116) was 17 µM (inactive), the GI50 (OVCAR-5) was 53.2 µM (inactive) and the GI50 (MDA-MB-231) was 41.4 µM (inactive). For the same compound, the GI50 (CAKI-1) was 58.1 µM (inactive), the GI50 (NCI-H23) was 68.9 µM (inactive) and the GI50 (SK-OV-3) was 83.9 µM (inactive). The GI50 (UACC-257) was 27.5 µM (inactive), the GI50 (BT-549) was 60.3 µM (inactive) and the GI50 (SK-MEL-5) was 35.2 µM (inactive). For the same compound, the GI50 (DU-145) was 55.3 µM (inactive), the GI50 (PC-3) was 40.9 µM (inactive) and the GI50 (HOP-92) was 36.8 µM (inactive). For the same compound, the GI50 (IGROV-1) was 41.8 µM (inactive), the GI50 (KM12) was 41.7 µM (inactive) and the GI50 (K562) was 32 µM (inactive). The GI50 (RXF 393) was 25 µM (inactive), the GI50 (SW-620) was 44.6 µM (inactive) and the GI50 (EKVX) was 39 µM (inactive). The GI50 (A498) was > 100 µM (inactive), the GI50 (786-0) was 37.1 µM (inactive) and the GI50 (HT-29) was 31.7 µM (inactive). The GI50 (SNB-19) was 53.5 µM (inactive), the GI50 (NCI-H522) was 16.3 µM (inactive) and the GI50 (OVCAR-4) was 49.4 µM (inactive). For the same compound, the GI50 (M14) was 47.5 µM (inactive), the GI50 (Malme-3M) was 25.5 µM (inactive) and the GI50 (SF-539) was > 100 µM (inactive). The GI50 (HCT-15) was 48.1 µM, the GI50 (NCI-H226) was > 100 µM (inactive) and the GI50 (U-251) was 32.4 µM (inactive). For the same compound, the GI50 (ACHN) was 34.2 µM (inactive), the GI50 (Hs-578T) was 43.1 µM (inactive) and the GI50 (MCF7) was 21.3 µM (inactive). For the same compound, the GI50 (TK-10) was 90.2 µM (inactive), the GI50 (SR) was 43.7 µM (inactive) and the GI50 (T47D) was 25 µM (inactive). For the same compound, the GI50 (HOP-62) was 49.7 µM (inactive).

For `COc1ccc(Nc2nc(N)c(C(=O)c3ccco3)s2)cc1`, the GI50 (SF-295) was 31.6 µM (inactive), the GI50 (COLO 205) was 13.4 µM (inactive) and the GI50 (UO-31) was 29.3 µM (inactive). For the same compound, the GI50 (MOLT-4) was 3.61 µM (inactive), the GI50 (OVCAR-3) was 20.6 µM (inactive) and the GI50 (SF-268) was 39.3 µM (inactive). For the same compound, the GI50 (CCRF-CEM) was 5.47 µM (inactive), the GI50 (OVCAR-8) was > 100 µM (inactive) and the GI50 (NCI-H460) was 13.7 µM (inactive). For the same compound, the GI50 (A549) was 27.3 µM (inactive), the GI50 (SK-MEL-28) was > 88.7 µM (inactive) and the GI50 (UACC-62) was 45.8 µM (inactive). For the same compound, the GI50 (SN12C) was > 70.8 µM (inactive), the GI50 (RPMI-8226) was 16.6 µM (inactive) and the GI50 (LOX IMVI) was 32.5 µM (inactive). For the same compound, the GI50 (NCI/ADR-RES) was 26.1 µM (inactive), the GI50 (HL-60) was 5.04 µM (inactive) and the GI50 (MDA-MB-435) was 3.15 µM (inactive). The GI50 (SK-MEL-2) was 23 µM (inactive), the GI50 (MDA-N) was 4.11 µM (inactive) and the GI50 (HCC 2998) was 15.7 µM (inactive). For the same compound, the GI50 (HCT-116) was 9.23 µM (inactive), the GI50 (OVCAR-5) was > 83.2 µM (inactive) and the GI50 (MDA-MB-231) was > 88.1 µM (inactive). The GI50 (CAKI-1) was 50 µM (inactive), the GI50 (NCI-H23) was > 61.4 µM (inactive) and the GI50 (SK-OV-3) was 35 µM (inactive). The GI50 (UACC-257) was 41.7 µM (inactive), the GI50 (BT-549) was > 67.8 µM (inactive) and the GI50 (SK-MEL-5) was 14.5 µM (inactive). For the same compound, the GI50 (DU-145) was 38.4 µM (inactive), the GI50 (PC-3) was 53.6 µM (inactive) and the GI50 (HOP-92) was > 92.7 µM (inactive). For the same compound, the GI50 (IGROV-1) was 10.7 µM (inactive), the GI50 (KM12) was 8.59 µM (inactive) and the GI50 (K562) was 4.72 µM (inactive). For the same compound, the GI50 (RXF 393) was 31.8 µM (inactive), the GI50 (SW-620) was 13.2 µM (inactive) and the GI50 (EKVX) was > 58.3 µM (inactive). The GI50 (A498) was 13.2 µM (inactive), the GI50 (786-0) was > 40 µM (inactive) and the GI50 (HT-29) was 7.78 µM (inactive). For the same compound, the GI50 (SNB-19) was > 56.5 µM (inactive), the GI50 (NCI-H522) was 7.71 µM (inactive) and the GI50 (OVCAR-4) was > 48.1 µM (inactive). The GI50 (M14) was 65.2 µM (inactive), the GI50 (Malme-3M) was > 90.2 µM (inactive) and the GI50 (SF-539) was 16.6 µM (inactive). The GI50 (HCT-15) was 6.58 µM, the GI50 (NCI-H226) was 33.9 µM (inactive) and the GI50 (U-251) was 40.4 µM (inactive). The GI50 (ACHN) was 47.8 µM (inactive), the GI50 (Hs-578T) was 22.4 µM (inactive) and the GI50 (MCF7) was 6.81 µM (inactive). The GI50 (TK-10) was 10.8 µM (inactive), the GI50 (SR) was 0.955 µM (active) and the GI50 (T47D) was > 60.5 µM (inactive). For the same compound, the GI50 (HOP-62) was > 63.8 µM (inactive).
